Here are results for 23 molecules from patent US20220402950A1, “SUBSTITUTED BENZIMIDAZOLES AS PAD4 INHIBITORS” (BRISTOL-MYERS SQUIBB COMPANY, priority 2018, published 2022).

The target in the assay is human PAD4 (hPAD4) (Homo sapiens, UniProt Q9UM07). Put plainly: RFMS Human PAD4 Functional Assay. Format: biochemical. To be noted: 5 nM hPAD4, 250 μM BAEE. A digest of the protocol:
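RapidFire ESI-MS quantification, normalised to a modified-citrulline internal standard, after phenyl glyoxal (final 4 mM) derivatisation of the TCA-quenched reaction. The enzyme (10 nM) sat 30 min with compound (up to 50 μM final) before 500 μM BAEE (as added) started a 90 min, 37 °C reaction. Buffer: HEPES pH 7.5, 50 μM calcium, 5 μM TPEN.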

[1] abbreviates: hPAD4 RFMS IC50, human PAD4, rapid-fire mass spectrum (RFMS) assay.

Like-named read-outs stand apart in the source and are kept apart here.

Sequence of human PAD4 (hPAD4) (Q9UM07 whole entry): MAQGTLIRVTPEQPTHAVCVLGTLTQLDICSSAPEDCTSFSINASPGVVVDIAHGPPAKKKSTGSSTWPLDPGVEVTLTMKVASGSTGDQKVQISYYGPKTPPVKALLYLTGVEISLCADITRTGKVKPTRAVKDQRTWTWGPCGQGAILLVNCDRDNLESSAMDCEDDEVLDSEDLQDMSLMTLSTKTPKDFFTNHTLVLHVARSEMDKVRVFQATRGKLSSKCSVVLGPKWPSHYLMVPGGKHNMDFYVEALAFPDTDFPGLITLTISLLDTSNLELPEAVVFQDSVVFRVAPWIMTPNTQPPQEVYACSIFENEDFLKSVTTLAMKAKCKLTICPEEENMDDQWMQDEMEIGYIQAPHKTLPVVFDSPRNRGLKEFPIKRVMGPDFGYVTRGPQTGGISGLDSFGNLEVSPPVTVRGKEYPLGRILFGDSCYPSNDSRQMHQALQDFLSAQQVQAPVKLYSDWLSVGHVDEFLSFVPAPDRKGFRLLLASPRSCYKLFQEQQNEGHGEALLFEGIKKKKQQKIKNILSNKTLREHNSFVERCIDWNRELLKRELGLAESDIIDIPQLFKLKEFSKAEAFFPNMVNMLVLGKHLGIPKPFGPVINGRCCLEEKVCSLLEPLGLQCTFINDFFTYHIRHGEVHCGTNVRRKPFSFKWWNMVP

The IC50 is the concentration at which inhibition is half-maximal. In turn, `COc1cc(C(=O)N2C[C@H](N)C[C@@H](F)C2)cc2nc(-c3cc4cccc(C5CC(C(=O)N(C)C)C5)c4n3CC3CC3)n(C)c12` (single isomer, unassigned) [Example 118] yielded an IC50 under setting [1] of 278 nM.

In the case of `COc1cc(C(=O)N2C[C@H]3CC[C@@H]2[C@@H]3N)cc2nc(-c3cc4cccc(Nc5c(C)nn(C)c5C)c4n3CC3CC3C)n(C)c12` (stereo partly drawn) [Example 180, ((1R,4R,7R)-7-amino-2-azabicyclo[2.2.1]heptan-2-yl)(7-methoxy-1-methyl-2-(1-((2-methylcyclopropyl)meth-yl)-7-((1,3,5-trimethyl-1H-pyrazol-4-yl)amino)-1H-indol-2-yl)-1H-benzo[d]imidazol-5-yl)methanone], the IC50 under setting [1] worked out at 27 nM.

Consider `COc1cc(C(=O)N2C[C@H]3CC[C@@H]2[C@@H]3N)cc2nc(-c3cc4cccc(C5CC(C(=O)N6CC(F)C6)C5)c4n3CC3CC3)n(C)c12` (single isomer, unassigned; isomer 1) [Example 200], for which, under setting [1], the IC50 amounted to 21 nM.

Regarding `COC(=O)c1cc(=O)[nH]c2ccc(-c3cccc4cc(-c5nc6cc(C(=O)N7C[C@H]8CC[C@@H]7[C@@H]8N)cc(OC)c6n5C)n(CC5CC5)c34)cc12` [Example 101, methyl 6-(2-{5-[(1R,4R,7R)-7-amino-2-azabicyclo[2.2.1]heptane-2-carbonyl]-7-methoxy-1-methyl-1H-1,3-benzodiazol-2-yl}-1-(cyclopropylmethyl)-1H-indol-7-yl)-2-oxo-1,2-dihydroquinoline-4-carboxylate], the IC50 under setting [1] worked out at 47 nM.

Under setting [1], `COc1cc(C(=O)N2C[C@H]3CC[C@@H]2[C@@H]3N)cc2nc(-c3cc4cccc(-c5cnn(CCO)c5)c4n3CC3CC3)n(C)c12` [Example 141, ((R,4R,7R)-7-amino-2-azabicyclo[2.2.1]heptan-2-yl)(2-(1-(cyclopropylmethyl)-7-(1-(2-hydroxyethyl)-1H-pyrazol-4-yl)-1H-indol-2-yl)-7-methoxy-1-methyl-1H-benzo[d]imidazol-5-yl)methanone] registered an IC50 of 101 nM.

`COc1cc(C(=O)N2C[C@H]3CC[C@@H]2[C@@H]3N)cc2nc(-c3cc4cccc(C5CCCC5)c4n3CC3CC3)n(C)c12` [Example 6, (1R,4R,7R)-2-{2-[7-cyclopentyl-1-(cyclopropylmethyl)-1H-indol-2-yl]-7-methoxy-1-methyl-1H-1,3-benzodiazole-5-carbonyl}-2-azabicyclo[2.2.1]heptan-7-amine] showed an IC50 under setting [1] of 190 nM.

On to `COc1cc(C(=O)N2C[C@H]3CC[C@@H]2[C@@H]3N)cc2nc(-c3cc4cccc(CC5CN(C(C)=O)C5)c4n3CC3CC3)n(C)c12` [Example 63, 1-{3-[(2-{5-[(1R,4R,7R)-7-amino-2-azabicyclo[2.2.1]heptane-2-carbonyl]-7-methoxy-1-methyl-1H-1,3-benzodiazol-2-yl}-1-(cyclopropylmethyl)-H-indol-7-yl)methyl]azetidin-1-yl}ethan-1-one], for which, for the setting “human PAD4, rapid-fire mass spectrum (RFMS) assay, read-out: hPAD4 RFMS IC50”, the concentration for half-maximal inhibition (IC50) is 62 nM.

On to `COc1cc(C(=O)N2C[C@H]3CC[C@@H]2[C@@H]3N)cc2nc(-c3cc4cccc(Nc5c(C)n[nH]c5C)c4n3CC3CC3)n(C)c12` [Example 172, ((1R,4R,7R)-7-amino-2-azabicyclo[2.2.1]heptan-2-yl)(2-(1-(cyclopropylmethyl)-7-((3,5-dimethyl-1H-pyrazol-4-yl)amino)-1H-indol-2-yl)-7-methoxy-1-methyl-1H-benzo[d]imidazol-5-yl)methanone], for which the IC50 under setting [1] came to 43 nM.

Consider `COc1cc(C(=O)N2C[C@H]3CC[C@@H]2[C@@H]3N)cc2nc(-c3cc4cccc(C5CN(C(=O)CO)C5)c4n3CC3CC3)n(C)c12` [Example 82, 1-[3-(2-{5-[(1R,4R,7R)-7-amino-2-azabicyclo[2.2.1]heptane-2-carbonyl]-7-methoxy-1-methyl-1H-1,3-benzodiazol-2-yl}-1-(cyclopropylmethyl)-1H-indol-7-yl)azetidin-1-yl]-2-hydroxyethan-1-one], for which the IC50 under setting [1] was determined as 10 nM.

`CCOC(=O)c1ccc(Nc2cccc3cc(-c4nc5cc(C(=O)N6CC7CCC6[C@@H]7N)cc(OC)c5n4C)n(CC4CC4)c23)cc1` (stereo partly drawn) [Example 162, ethyl 4-((2-(5-((7R)-7-amino-2-azabicyclo[2.2.1]heptane-2-carbonyl)-7-methoxy-1-methyl-1H-benzo[d]imidazol-2-yl)-1-(cyclopropylmethyl)-1H-indol-7-yl)amino)benzoate] came in with an IC50 under setting [1] of 98 nM.

`COc1cc(C(=O)N2C[C@H]3CC[C@@H]2[C@@H]3N)cc2nc(-c3cc4cccc(C5CN(C(=O)Nc6ccc(F)cc6)C5)c4n3CC3CC3)n(C)c12` [Example 229, 3-(2-(5-((1R,4R,7R)-7-amino-2-azabicyclo[2.2.1]heptane-2-carbonyl)-7-methoxy-1-methyl-1H-benzo[d]imidazol-2-yl)-1-(cyclopropylmethyl)-1H-indol-7-yl)-N-(4-fluorophenyl)azetidine-1-carboxamide]: under setting [1], the IC50 came out at 13 nM.

Molecule `COc1cc(C(=O)N2C[C@H]3CC[C@@H]2[C@@H]3N)cc2nc(-c3cc4cccc(Nc5cnn(C)c5)c4n3CC3CC3)n(C)c12` [Example 171, ((1R,4R,7R)-7-amino-2-azabicyclo[2.2.1]heptan-2-yl)(2-(1-(cyclopropylmethyl)-7-((1-methyl-1H-pyrazol-4-yl)amino)-1H-indol-2-yl)-7-methoxy-1-methyl-1H-benzo[d]imidazol-5-yl)methanone] came in with an IC50 under setting [1] of 96 nM.

Under setting [1], `COc1cc(C(=O)N2C[C@H]3CC[C@@H]2[C@@H]3N)cc2nc(-c3cc4cccc(C5CC(C(=O)N6CC[C@H](O)C6)C5)c4n3CC3CC3)n(C)c12` (single isomer, unassigned) [Example 53] yielded an IC50 of 51 nM.

Consider `COc1cc(C(=O)N2C[C@H]3CC[C@@H]2[C@@H]3N)cc2nc(-c3cc4cccc(C5CCN(C(=O)CO)CC5)c4n3CC3CC3)n(C)c12` [Example 240, 1-(4-(2-(5-((1R,4R,7R)-7-amino-2-azabicyclo[2.2.1]heptane-2-carbonyl)-7-methoxy-1-methyl-1H-benzo[d]imidazol-2-yl)-1-(cyclopropylmethyl)-1H-indol-7-yl)piperidin-1-yl)-2-hydroxyethan-1-one], for which, under setting [1], the IC50 turned out to be 15 nM.

Under setting [1], `COc1cc(C(=O)N2C[C@H]3CC[C@@H]2[C@@H]3N)cc2nc(-c3cc4cccc(CCCCCCN)c4n3CC3CC3)n(C)c12` [Example 17, (1R,4R,7R)-2-{2-[7-(6-aminohexyl)-1-(cyclopropylmethyl)-1H-indol-2-yl]-7-methoxy-1-methyl-1H-1,3-benzodiazole-5-carbonyl}-2-azabicyclo[2.2.1]heptan-7-amine] displayed an IC50 of 56 nM.

For `COc1cc(C(=O)N2C[C@H]3CC[C@@H]2[C@@H]3N)cc2nc(-c3cc4cccc(Br)c4n3CC3CC3(F)F)n(C)c12` (stereo partly drawn) [Example 146, ((1R,4R,7R)-7-amino-2-azabicyclo[2.2.1]heptan-2-yl)(2-(7-bromo-1-((2,2-difluorocyclopropyl)meth-yl)-1H-indol-2-yl)-7-methoxy-1-methyl-1H-benzo[d]imidazol-5-yl)methanone], the IC50 under setting [1] was determined as 52 nM.

Under setting [1], `COc1cc(C(=O)N2C[C@H]3CC[C@@H]2[C@@H]3N)cc2nc(-c3cc4cccc(C5COC5)c4n3CC3CC3)n(C)c12` [Example 25, (1R,4R,7R)-2-{2-[1-(cyclopropylmethyl)-7-(oxetan-3-yl)-1H-indol-2-yl]-7-methoxy-1-methyl-1H-1,3-benzodiazole-5-carbonyl}-2-azabicyclo[2.2.1]heptan-7-amine] displayed an IC50 of 63 nM.

Under setting [1], `COc1cc(C(=O)N2C[C@H]3CC[C@@H]2[C@@H]3N)cc2nc(-c3cc4cccc(-c5cn[nH]c5)c4n3CC3CC3)n(C)c12` [Example 137, ((1R,4R,7R)-7-amino-2-azabicyclo[2.2.1]heptan-2-yl)(2-(1-(cyclopropylmethyl)-7-(1H-pyrazol-4-yl)-1H-indol-2-yl)-7-methoxy-1-methyl-1H-benzo[d]imidazol-5-yl)methanone] had an IC50 of 37 nM.

In the case of `COc1cc(C(=O)N2C[C@H]3CC[C@@H]2[C@@H]3N)cc2nc(-c3cc4cccc(C5CC(C(=O)N6CCCC6)C5)c4n3CC3CC3)n(C)c12` (single isomer, unassigned) [Example 50], under setting [1], half-maximal inhibition (IC50) required 81 nM.

As to `COc1cc(C(=O)N2C[C@H]3CC[C@@H]2[C@@H]3N)cc2nc(-c3cc4cccc(-c5ccc(NC(C)=O)nc5)c4n3CC3CC3)n(C)c12` [Example 106, N-[5-(2-{5-[(1R,4R,7R)-7-amino-2-azabicyclo[2.2.1]heptane-2-carbonyl]-7-methoxy-1-methyl-1H-1,3-benzodiazol-2-yl}-1-(cyclopropylmethyl)-1H-indol-7-yl)pyridin-2-yl]acetamide], the IC50 under setting [1] was 61 nM.

Consider `COc1cc(C(=O)N2CC3CCC2[C@@H]3N)cc2nc(-c3cc4cccc(-c5cccnc5)c4n3CC3CC3)n(C)c12` (stereo partly drawn) [Example 134, ((7R)-7-amino-2-azabicyclo[2.2.1]heptan-2-yl)(2-(1-(cyclopropylmethyl)-7-(pyridin-3-yl)-1H-indol-2-yl)-7-methoxy-1-methyl-1H-benzo[d]imidazol-5-yl)methanone], for which, under setting [1], inhibition was half-maximal at 155 nM (IC50).

Under setting [1], `COc1cc(C(=O)N2C[C@H]3CC[C@@H]2[C@@H]3N)cc2nc(-c3cc4cccc(CC5CCCCO5)c4n3CC3CC3)n(C)c12` (stereo partly drawn) [Example 36, (1R,4R,7R)-2-{2-[1-(cyclopropylmethyl)-7-[(oxan-2-yl)methyl]-1H-indol-2-yl]-7-methoxy-1-methyl-1H-1,3-benzodiazole-5-carbonyl}-2-azabicyclo[2.2.1]heptan-7-amine] yielded an IC50 of 199 nM.

`COc1cc(C(=O)N2C[C@H]3CC[C@@H]2[C@@H]3N)cc2nc(-c3cc4cccc(C5CCN(C(=O)COC(C)C)CC5)c4n3CC3CC3)n(C)c12` [Example 239, 1-(4-(2-(5-((1R,4R,7R)-7-amino-2-azabicyclo[2.2.1]heptane-2-carbonyl)-7-methoxy-1-methyl-1H-benzo[d]imidazol-2-yl)-1-(cyclopropylmethyl)-1H-indol-7-yl)piperidin-1-yl)-2-isopropoxyethan-1-one] showed a 50% inhibitory concentration (IC50) under setting [1] of 119 nM.
